Literature values in article PMC9516332 (Frontiers in Oncology, 2022).
Like-named read-outs stand apart in the source and are kept apart here.

Legend:
Settings in all cases: cited from earlier work
[1] = target: panel of 255 wild-type kinases (Homo sapiens, UniProt P68400)
[2] = target: panel of 255 wild-type kinases (Homo sapiens, UniProt O00311)
[3] = target: panel of 255 wild-type kinases (Homo sapiens, UniProt Q9Y243)
[4] = target: T1, panel of 255 wild-type kinases (Homo sapiens, UniProt O43781)
T1 sequence (O43781 1-588): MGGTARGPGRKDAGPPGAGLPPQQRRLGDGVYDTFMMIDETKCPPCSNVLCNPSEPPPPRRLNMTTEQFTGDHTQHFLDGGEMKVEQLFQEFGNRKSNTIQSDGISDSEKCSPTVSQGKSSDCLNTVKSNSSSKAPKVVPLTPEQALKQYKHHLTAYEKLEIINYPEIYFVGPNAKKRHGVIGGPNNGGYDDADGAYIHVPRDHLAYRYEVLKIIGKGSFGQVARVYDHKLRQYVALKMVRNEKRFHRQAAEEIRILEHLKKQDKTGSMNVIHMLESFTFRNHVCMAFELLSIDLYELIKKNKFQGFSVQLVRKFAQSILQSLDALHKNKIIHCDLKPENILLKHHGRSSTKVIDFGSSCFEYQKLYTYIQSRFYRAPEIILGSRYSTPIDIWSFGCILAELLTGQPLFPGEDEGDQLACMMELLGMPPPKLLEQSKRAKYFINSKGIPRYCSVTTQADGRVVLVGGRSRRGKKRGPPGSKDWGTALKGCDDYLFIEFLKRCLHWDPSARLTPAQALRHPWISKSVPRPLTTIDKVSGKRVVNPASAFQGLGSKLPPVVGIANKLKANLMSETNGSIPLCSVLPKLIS

[5] = target: panel of 255 wild-type kinases (Homo sapiens, UniProt P53350)
[6] = target: panel of 255 wild-type kinases (Homo sapiens, UniProt Q9H4B4)
[7] = target: panel of 255 wild-type kinases (Homo sapiens, UniProt Q9H1R3)
[8] = target: T2, panel of 255 wild-type kinases (Homo sapiens, UniProt P54760)
T2 sequence (P54760 16-987): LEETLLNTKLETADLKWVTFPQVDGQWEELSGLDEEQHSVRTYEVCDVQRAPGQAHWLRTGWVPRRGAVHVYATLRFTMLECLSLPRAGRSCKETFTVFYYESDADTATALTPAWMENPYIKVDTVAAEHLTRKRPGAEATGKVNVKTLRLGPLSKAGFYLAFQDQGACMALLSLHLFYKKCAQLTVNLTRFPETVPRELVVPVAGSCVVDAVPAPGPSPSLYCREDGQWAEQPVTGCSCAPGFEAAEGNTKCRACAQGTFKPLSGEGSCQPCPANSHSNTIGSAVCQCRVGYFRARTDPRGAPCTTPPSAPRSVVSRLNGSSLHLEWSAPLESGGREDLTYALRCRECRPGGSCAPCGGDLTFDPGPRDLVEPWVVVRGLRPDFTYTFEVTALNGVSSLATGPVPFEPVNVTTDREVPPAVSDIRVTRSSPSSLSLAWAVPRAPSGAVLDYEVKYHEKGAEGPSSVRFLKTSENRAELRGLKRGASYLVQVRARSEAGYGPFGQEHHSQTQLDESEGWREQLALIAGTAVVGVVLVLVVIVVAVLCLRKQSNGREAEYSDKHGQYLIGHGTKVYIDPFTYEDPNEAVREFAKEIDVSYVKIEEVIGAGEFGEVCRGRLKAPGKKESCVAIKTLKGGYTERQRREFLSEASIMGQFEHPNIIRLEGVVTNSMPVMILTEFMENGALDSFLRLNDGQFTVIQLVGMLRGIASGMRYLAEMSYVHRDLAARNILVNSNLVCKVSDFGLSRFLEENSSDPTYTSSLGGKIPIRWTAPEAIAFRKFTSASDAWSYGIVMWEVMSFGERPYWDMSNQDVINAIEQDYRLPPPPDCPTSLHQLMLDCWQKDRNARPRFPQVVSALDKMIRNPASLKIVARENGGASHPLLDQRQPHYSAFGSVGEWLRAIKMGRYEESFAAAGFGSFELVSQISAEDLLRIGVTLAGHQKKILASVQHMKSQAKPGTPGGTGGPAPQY

[9] = kinase CK2α1/β, 1 µmol/L single concentration, ref DOI: 10.1158/1535-7163.MCT-18-0877
[10] = CDC7/ASK kinase assay, 1 µmol/L single concentration, ref DOI: 10.1158/1535-7163.MCT-18-0877
[11] = AKT3 kinase assay, 1 µmol/L single concentration, ref DOI: 10.1158/1535-7163.MCT-18-0877
[12] = kinase DYRK3, 1 µmol/L single concentration, ref DOI: 10.1158/1535-7163.MCT-18-0877
[13] = kinase PLK1, 1 µmol/L single concentration, ref DOI: 10.1158/1535-7163.MCT-18-0877
[14] = kinase PLK3, 1 µmol/L single concentration, ref DOI: 10.1158/1535-7163.MCT-18-0877
[15] = kinase skMLCK, 1 µmol/L single concentration, ref DOI: 10.1158/1535-7163.MCT-18-0877
[16] = kinase EPHB4, 1 µmol/L single concentration, ref DOI: 10.1158/1535-7163.MCT-18-0877
[17] = kinase CK2α1/β, 1 µmol/L single concentration, ref DOI: 10.1371/journal.pone.0092146
[18] = AKT3 kinase assay, 1 µmol/L single concentration, ref DOI: 10.1371/journal.pone.0092146
[19] = kinase DYRK3, 1 µmol/L single concentration, ref DOI: 10.1371/journal.pone.0092146
[20] = kinase PLK1, 1 µmol/L single concentration, ref DOI: 10.1371/journal.pone.0092146
[21] = kinase PLK3, 1 µmol/L single concentration, ref DOI: 10.1371/journal.pone.0092146
[22] = kinase EPHB4, 1 µmol/L single concentration, ref DOI: 10.1371/journal.pone.0092146
[23] = CDC7/ASK kinase assay, 1 µmol/L single concentration, ref DOI: 10.1371/journal.pone.0092146
[24] = kinase skMLCK, 1 µmol/L single concentration, ref DOI: 10.1371/journal.pone.0092146

SMILES | %-inhibition at 1 µmol/L, CK2α1/β [1, 9] [%] | %-inhibition CDC7/ASK [2, 10] [%] | %-inhibition AKT3 [3, 11] [%] | %-inhibition at 1 µmol/L, DYRK3 [4, 12] [%] | %-inhibition at 1 µmol/L, PLK1 [5, 13] [%] | %-inhibition at 1 µmol/L, PLK3 [6, 14] [%] | %-inhibition at 1 µmol/L, skMLCK [7, 15] [%] | %-inhibition at 1 µmol/L, EPHB4 [8, 16] [%] | also measured
CC#CC(=O)N1CCC[C@H]1c1nc(-c2ccc(C(=O)Nc3ccccn3)cc2)c2c(N)nccn12 [acalabrutinib] | 5.34 | -1.64 | -5 | 0.353 | -2.57 | 1.76 | -17 | -1.45 | 
CCc1cc2c(cc1N1CCC(N3CCOCC3)CC1)C(C)(C)c1[nH]c3cc(C#N)ccc3c1C2=O [alectinib] | -3.18 | -0.8 | -0.889 | 8.44 | -1.76 | -4 | -11 | 11 | 
COc1cc(N2CCC(N3CCN(C)CC3)CC2)ccc1Nc1ncc(Cl)c(Nc2ccccc2P(C)(C)=O)n1 [brigatinib] |  |  |  |  |  |  |  |  | %-inhibition at 1 µmol/L, CK2α1/β [1]: 8.51%; %-inhibition CDC7/ASK [2]: 0.868%; %-inhibition AKT3 [3]: -0.864%; %-inhibition at 1 µmol/L, DYRK3 [4]: 3.23%; %-inhibition at 1 µmol/L, PLK1 [5]: 49%; %-inhibition at 1 µmol/L, PLK3 [6]: -2.57%; %-inhibition at 1 µmol/L, skMLCK [7]: -6%; %-inhibition at 1 µmol/L, EPHB4 [8]: 9%
Cc1cc(Nc2ncc(Cl)c(Nc3ccccc3S(=O)(=O)C(C)C)n2)c(OC(C)C)cc1C1CCNCC1 [ceritinib] | -8 | -2.74 | -4 | -2.12 |  | -0.156 | -9 | 3.73 | 
O=C(c1ccc(F)c(F)c1Nc1ccc(I)cc1F)N1CC(O)([C@@H]2CCCCN2)C1 [cobimetinib] | -9 | 5 | -3.43 | -3.62 | -1.08 | 4 | -10 | -2.41 | 
C[C@@H](Oc1cc(-c2cnn(C3CCNCC3)c2)cnc1N)c1c(Cl)ccc(F)c1Cl [crizotinib] |  |  |  |  |  |  |  |  | %-inhibition at 1 µmol/L, CK2α1/β [1, 17]: -6.39%; %-inhibition AKT3 [3, 18]: -1.83%; %-inhibition at 1 µmol/L, DYRK3 [4, 19]: 14%; %-inhibition at 1 µmol/L, PLK1 [5, 20]: -3%; %-inhibition at 1 µmol/L, PLK3 [6, 21]: -2.24%; %-inhibition at 1 µmol/L, EPHB4 [8, 22]: 83%
CC(C)(C)c1nc(-c2cccc(NS(=O)(=O)c3c(F)cccc3F)c2F)c(-c2ccnc(N)n2)s1 [dabrafenib] |  |  |  |  |  |  |  |  | %-inhibition CDC7/ASK [2, 23]: -6%; %-inhibition at 1 µmol/L, DYRK3 [4, 19]: -5.68%; %-inhibition at 1 µmol/L, PLK1 [5, 20]: -9%; %-inhibition at 1 µmol/L, skMLCK [7, 24]: 0.52%
C=CC(=O)N1CCC[C@@H](n2nc(-c3ccc(Oc4ccccc4)cc3)c3c(N)ncnc32)C1 [ibrutinib] | -11 | -1 | -2.25 | -4 | -2.28 | 1.53 | -17 | 27 | 
CO[C@@H]1[C@H](N(C)C(=O)c2ccccc2)C[C@H]2O[C@]1(C)n1c3ccccc3c3c4c(c5c6ccccc6n2c5c31)C(=O)NC4 [midostaurin] | -5.6 | 60 |  |  | 6 | -0.227 | 0.93 | 1.2 | 
C=CC(=O)Nc1cc(Nc2nccc(-c3cn(C)c4ccccc34)n2)c(OC)cc1N(C)CCN(C)C [osimertinib] | 12 | 1.64 | -1.74 | 21 | -0.476 | 5 | -4 | -3 | 
CC(=O)Nc1cccc(-n2c(=O)n(C3CC3)c(=O)c3c(Nc4ccc(I)cc4F)n(C)c(=O)c(C)c32)c1 [trametinib] |  |  |  |  |  |  |  |  | %-inhibition at 1 µmol/L, CK2α1/β [1, 17]: -3.4%; %-inhibition CDC7/ASK [2, 23]: -8%; %-inhibition AKT3 [3, 18]: -5.3%; %-inhibition at 1 µmol/L, DYRK3 [4, 19]: -10%; %-inhibition at 1 µmol/L, PLK1 [5, 20]: -9%; %-inhibition at 1 µmol/L, PLK3 [6, 21]: -6.59%; %-inhibition at 1 µmol/L, skMLCK [7, 24]: -3.34%; %-inhibition at 1 µmol/L, EPHB4 [8, 22]: -3.38%
